This is an account of results in ChEMBL document CHEMBL1275581, “Detection of the pandemic O25-ST131 human virulent Escherichia coli CTX-M-15-producing clone harboring the qnrB2 and aac(6')-Ib-cr genes in a dog” (2009).

≈ marks a conversion by molar mass, not a printed value.

For assay [1], the system named is Escherichia coli. In words: microbe, parasite or virus in culture. As to conditions: J53.
The subject of assay [2] is Escherichia coli. Description: Antimicrobial activity against Azide-resistant Escherichia coli J53 by broth microdilution method. In kind it is functional.
Assay [3] has as its system Escherichia coli. Description: Antimicrobial activity against beta-lactamase CTX-M-15-producing fluoroquinolone-resistant Escherichia coli FMV5825 expressing qnrB2 and aac(6')-Ib-cr and harboring gyrA Ser83Ile and Asp87Asn mutant gene and ParC Ser80Ile and Glu84Val mutant gene obtained from dog with urinary tract infection by broth microdilution method. Type of assay: functional.

The subject of assay [4] is Escherichia coli. Description: Antimicrobial activity against Azide-resistant Escherichia coli J53 by broth microdilution method in presence of beta-lactamase inhibitor clavulanic acid. Type of assay: functional.
The test system of assay [5] is Escherichia coli. Description: Antimicrobial activity against Azide-resistant Escherichia coli J53 transconjugant harboring Escherichia coli DH5alpha-5825 qnrB2 gene by broth microdilution method in presence of beta-lactamase inhibitor clavulanic acid. In kind it is functional.
Assay [6] has as its system Escherichia coli. In words: Antimicrobial activity against beta-lactamase CTX-M-15-producing fluoroquinolone-resistant Escherichia coli FMV5825 expressing qnrB2 and aac(6')-Ib-cr and harboring gyrA Ser83Ile and Asp87Asn mutant gene and ParC Ser80Ile and Glu84Val mutant gene obtained from dog with urinary tract infection by broth microdilution method in presence of beta-lactamase inhibitor clavulanic acid. In kind it is functional. As to conditions: FMV5825, Urine.

The test system of assay [7] is Escherichia coli. In words: Antimicrobial activity against Escherichia coli harboring qnr gene assessed as resistant isolate. Type of assay: functional.
Assay [8] has as its system Escherichia coli. Description: Antimicrobial activity against beta-lactamase CTX-M-15-producing fluoroquinolone-resistant Escherichia coli FMV5825 expressing qnrB2 and aac(6')-Ib-cr and harboring gyrA Ser83Ile and Asp87Asn mutant gene and ParC Ser80Ile and Glu84Val mutant gene obtained from dog with urinary tract infection by broth microdilution method in presence of beta-lactamase inhibitor Tazobactam. Type of assay: functional. As to conditions: FMV5825, Urine.

The subject of assay [9] is Escherichia coli. In words: Antimicrobial activity against Azide-resistant Escherichia coli J53 transconjugant harboring Escherichia coli DH5alpha-5825 qnrB2 gene by broth microdilution method in presence of beta-lactamase inhibitor Tazobactam. Type of assay: functional.
Assay [10] has as its system Escherichia coli. In words: Antimicrobial activity against Azide-resistant Escherichia coli J53 by broth microdilution method in presence of beta-lactamase inhibitor Tazobactam. Type of assay: functional.

For `CO/N=C(\C(=O)N[C@@H]1C(=O)N2C(C(=O)[O-])=C(C[N+]3(C)CCCC3)CS[C@H]12)c1csc(N)n1`, the MIC is above 16 µg/mL with Escherichia coli [1]; at most 1 µg/mL against Escherichia coli [2]; above 16 µg/mL against Escherichia coli [3] (FMV5825, Urine).
As to `COCC1=C(C(=O)O)N2C(=O)[C@@H](NC(=O)/C(=N\OC)c3csc(N)n3)[C@H]2SC1` [CEFPODOXIME], the MIC with Escherichia coli [1] was above 4 µg/mL; against Escherichia coli [2], at most 1 µg/mL; with Escherichia coli [3] (FMV5825, Urine), above 4 µg/mL.
`CO[C@@]1(NC(=O)Cc2cccs2)C(=O)N2C(C(=O)O)=C(COC(N)=O)CS[C@@H]21` [CEFOXITIN]: the MIC was at most 4 µg/mL against Escherichia coli [1]; at most 4 µg/mL with Escherichia coli [2]; at most 4 µg/mL in the assay with Escherichia coli [3] (FMV5825, Urine).
As for `CC(C)(O/N=C(\C(=O)N[C@@H]1C(=O)N2C(C(=O)[O-])=C(C[n+]3ccccc3)CS[C@H]12)c1csc(N)n1)C(=O)O` [CEFTAZIDIME], the MIC with Escherichia coli [1] is 64 µg/mL (≈ 117 µM); with Escherichia coli [4], at most 0.25 µg/mL; with Escherichia coli [5], at most 0.25 µg/mL; in the assay with Escherichia coli [6] it was at most 0.25 µg/mL; against Escherichia coli [2], at most 1 µg/mL; with Escherichia coli [3] (FMV5825, Urine), 128 µg/mL (≈ 234 µM).
In the case of `CO/N=C(\C(=O)N[C@@H]1C(=O)N2C(C(=O)O)=C(COC(C)=O)CS[C@H]12)c1csc(N)n1` [CEFOTAXIME], the MIC against Escherichia coli [1] is above 64 µg/mL; in the assay on Escherichia coli [4], at most 0.25 µg/mL; in the assay with Escherichia coli [5] it was at most 0.25 µg/mL; in the assay with Escherichia coli [6], at most 0.25 µg/mL; in the assay on Escherichia coli [2] it was at most 1 µg/mL; against Escherichia coli [3] (FMV5825, Urine) it was above 64 µg/mL.
For the compound `CCn1cc(C(=O)O)c(=O)c2ccc(C)nc21` [NALIDIXIC ACID], the MIC against Escherichia coli [1] is 16 µg/mL (≈ 68.9 µM); in the assay on Escherichia coli [2], 4 µg/mL (≈ 17.2 µM); in the assay with Escherichia coli [3] (FMV5825, Urine) it was above 256 µg/mL. In addition, the Activity in the assay with Escherichia coli [7] is 34%.
Consider `C[C@H]1COc2c(N3CCN(C)CC3)c(F)cc3c(=O)c(C(=O)O)cn1c23.C[C@H]1COc2c(N3CCN(C)CC3)c(F)cc3c(=O)c(C(=O)O)cn1c23.O` [LEVOFLOXACIN], for which the MIC turned out to be 0.031 µg/mL with Escherichia coli [1]; 0.031 µg/mL in the assay with Escherichia coli [2]; 32 µg/mL in the assay on Escherichia coli [3] (FMV5825, Urine).
With GENTAMICIN, the results for the MIC in the assay with Escherichia coli [2] and in the assay with Escherichia coli [3] (Urine) were 0.25 µg/mL and 32 µg/mL, respectively.
Regarding `CC1(C)S[C@@H]2[C@H](NC(=O)[C@H](C(=O)O)c3ccsc3)C(=O)N2[C@H]1C(=O)O` [TICARCILLIN], the MIC against Escherichia coli [1] is above 64 µg/mL; against Escherichia coli [2], at most 16 µg/mL; in the assay with Escherichia coli [3] (FMV5825, Urine), above 64 µg/mL.
`CCn1cc(C(=O)O)c(=O)c2cc(F)c(N3CCNCC3)cc21` [NORFLOXACIN]: the MIC against Escherichia coli [1] worked out at 0.5 µg/mL (≈ 1.57 µM); in the assay with Escherichia coli [2] it was 0.062 µg/mL (≈ 0.194 µM); against Escherichia coli [3] (FMV5825, Urine), 256 µg/mL (≈ 802 µM).
For `CC1(C)S[C@@H]2[C@H](NC(=O)[C@H](N)c3ccccc3)C(=O)N2[C@H]1C(=O)O` [AMPICILLIN] the same measures were above 16 µg/mL, at most 4 µg/mL and above 16 µg/mL.
For `CO[C@@]1(NC(=O)C2SC(=C(C(N)=O)C(=O)O)S2)C(=O)N2C(C(=O)O)=C(CSc3nnnn3C)CS[C@@H]21` (some centres not stated) [CEFOTETAN] the same measures were at most 16 µg/mL, at most 16 µg/mL and at most 16 µg/mL.
For `Cc1nnc(SCC2=C(C(=O)O)N3C(=O)[C@@H](NC(=O)Cn4cnnn4)[C@H]3SC2)s1` [CEFAZOLIN] the same measures were above 16 µg/mL, at most 16 µg/mL and above 16 µg/mL.
In the case of `C[C@H]1[C@H](NC(=O)/C(=N\OC(C)(C)C(=O)O)c2csc(N)n2)C(=O)N1S(=O)(=O)O` [AZTREONAM], the MIC with Escherichia coli [1] is above 16 µg/mL; against Escherichia coli [2], at most 1 µg/mL; against Escherichia coli [3] (FMV5825, Urine), above 16 µg/mL.
In the case of `CCN1CCN(C(=O)N[C@@H](C(=O)N[C@@H]2C(=O)N3[C@@H]2SC(C)(C)[C@@H]3C(=O)O)c2ccccc2)C(=O)C1=O` [PIPERACILLIN], the MIC in the assay on Escherichia coli [8] is at most 8 µg/mL; with Escherichia coli [9], at most 8 µg/mL; in the assay with Escherichia coli [1] it was above 64 µg/mL; against Escherichia coli [2], at most 8 µg/mL; with Escherichia coli [10] it was at most 8 µg/mL; against Escherichia coli [3] (FMV5825, Urine) it was above 64 µg/mL.
`NC[C@H]1O[C@H](O[C@H]2[C@H](O)[C@@H](O[C@H]3O[C@H](CO)[C@@H](O)[C@H](N)[C@H]3O)[C@H](N)C[C@@H]2N)[C@H](N)C[C@@H]1O` [TOBRAMYCIN]: the MIC is above 8 µg/mL in the assay on Escherichia coli [1]; at most 2 µg/mL in the assay on Escherichia coli [2]; above 8 µg/mL against Escherichia coli [3] (FMV5825, Urine).
As for `CC1(C)S[C@@H]2[C@H](NC(=O)[C@H](N)c3ccc(O)cc3)C(=O)N2[C@H]1C(=O)O` [AMOXICILLIN], the MIC in the assay on Escherichia coli [4] came out at 2 µg/mL; in the assay with Escherichia coli [5] it was 8 µg/mL; in the assay on Escherichia coli [6] it was 8 µg/mL.
As for `NCC[C@H](O)C(=O)N[C@@H]1C[C@H](N)[C@@H](O[C@H]2O[C@H](CN)[C@@H](O)[C@H](O)[C@H]2O)[C@H](O)[C@H]1O[C@H]1O[C@H](CO)[C@@H](O)[C@H](N)[C@H]1O` [AMIKACIN], the MIC amounted to 2 µg/mL (≈ 3.42 µM) with Escherichia coli [1]; 0.5 µg/mL (≈ 0.854 µM) with Escherichia coli [2]; 16 µg/mL (≈ 27.3 µM) with Escherichia coli [3] (FMV5825, Urine).
For the compound `CO/N=C(\C(=O)N[C@@H]1C(=O)N2C(C(=O)O)=C(COC(N)=O)CS[C@H]12)c1ccco1` [CEFUROXIME], the MIC against Escherichia coli [1] was above 16 µg/mL; with Escherichia coli [2], 1 µg/mL (≈ 2.36 µM); with Escherichia coli [3] (FMV5825, Urine) it was above 16 µg/mL.
Regarding `C[C@@H](O)[C@H]1C(=O)N2C(C(=O)O)=C(S[C@@H]3CN[C@H](C(=O)N(C)C)C3)[C@H](C)[C@H]12` [MEROPENEM], the MIC is at most 2 µg/mL with Escherichia coli [1]; at most 2 µg/mL in the assay on Escherichia coli [2]; at most 2 µg/mL against Escherichia coli [3] (FMV5825, Urine).
With `C[C@@H](O)[C@H]1C(=O)N2C(C(=O)O)=C(SCCNC=N)C[C@H]12` [IMIPENEM ANHYDROUS], the MIC is at most 1 µg/mL in the assay with Escherichia coli [1]; at most 1 µg/mL against Escherichia coli [2]; at most 1 µg/mL against Escherichia coli [3] (FMV5825, Urine).
As for `C[C@@H](O)[C@H]1C(=O)N2C(C(=O)O)=C(S[C@@H]3CN[C@H](C(=O)Nc4cccc(C(=O)O)c4)C3)[C@H](C)[C@H]12`, the MIC in the assay with Escherichia coli [1] was at most 0.5 µg/mL; with Escherichia coli [2], at most 0.5 µg/mL; in the assay with Escherichia coli [3] (FMV5825, Urine), at most 0.5 µg/mL.
For the compound `O=C(O)c1cn(C2CC2)c2cc(N3CCNCC3)c(F)cc2c1=O` [CIPROFLOXACIN], in the assay on Escherichia coli [7], the Activity was found to be 26%. Moreover, the MIC in the assay on Escherichia coli [3] (FMV5825, Urine) turned out to be 128 µg/mL (≈ 386 µM).
